Molecular target: T1, G6 polypeptide (Homo sapiens, UniProt Q9BYG0)
T1 construct: In order to obtain a DNA encoding the full-length G6 polypeptide, PCR was carried out; expressed in transfected cells; Triton X-100 cell extract
T1 sequence (Q9BYG0 1-378): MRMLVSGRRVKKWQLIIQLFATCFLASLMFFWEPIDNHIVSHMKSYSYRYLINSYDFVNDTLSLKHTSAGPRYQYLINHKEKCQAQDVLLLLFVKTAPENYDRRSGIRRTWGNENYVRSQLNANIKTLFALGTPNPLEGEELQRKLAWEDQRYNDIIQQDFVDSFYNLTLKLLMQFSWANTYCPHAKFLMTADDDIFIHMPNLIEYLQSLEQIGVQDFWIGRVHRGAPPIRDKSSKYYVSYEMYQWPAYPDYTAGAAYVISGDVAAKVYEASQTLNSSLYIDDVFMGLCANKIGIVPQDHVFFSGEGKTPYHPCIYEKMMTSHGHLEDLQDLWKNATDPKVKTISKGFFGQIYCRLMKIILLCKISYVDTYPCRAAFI
Test: β1,3-N-acetylglucosaminyltransferase activity of cell extract of Namalwa cells transfected with pAMo-G6, 2-aminobenzamide-labeled oligosaccharide substrates
Format: biochemical
Conditions: cell extract (20 μg protein) of pAMo-G6-transfected Namalwa cells; 2-aminobenzamide-labeled substrate; 37° C., 16 hours
Protocol: The transformant cells (about 2×10^7 cells) obtained in Example 6(1) were put into a microtube (1.5 ml: manufactured by Eppendorf), and the cells were collected by centrifugation (550×g, 7 minutes). The cells were washed with 0.9 ml of PBS, the washed cells were suspended in a solution (100 μl) containing 20 mmol/l HEPES (pH 7.2) and 2% Triton X-100 and then the cells were disrupted using a sonicator (Bioruptor; manufactured by COSMO BIO). After the mixture was allowed to stand at 4° C. for 1 hour, the supernatant was obtained by centrifugation (550×g, 7 minutes). The supernatant was used as an enzyme sample.
A β1,3-N-acetylglucosaminyltransferase activity was measured by using this enzyme sample and 2-aminobenzamide-labeled sugar chain substrates. […]
The activity measurement was carried out using known methods [FEBS, 462, 289 (1999), J. Biol. Chem., 269, 14730-14737 (1994), J. Biol. Chem., 267, 23507 (1992), J. Biol. Chem., 267, 2994 (1992)]. Specifically, the reaction was carried out at 37° C. for 16 hours in 20 μl of an assay solution [150 mmol/l MOPS (pH 7.5), 50 mmol/l UDP-GlcNAc (manufactured by SIGMA), 20 mmol/l sodium cacodylate (pH 7.2), 0.4% Triton CF-54, 10 mmol/l MnCl2, 15 mmol/l 2-aminobenzamide-labeled sugar chain substrate, the above cell extract (20 μg as protein)], and then the product was detected by high performance liquid chromatography (HPLC). […]

ratio of the substrate converted into the product | SMILES
6.11% | CC(=O)N[C@H]1[C@H](O[C@H]2[C@@H](O)[C@@H](CO)O[C@@H](O[C@H]3[C@H](O)[C@@H](O)C(O)O[C@@H]3CO)[C@@H]2O)O[C@H](CO)[C@@H](O[C@@H]2O[C@H](CO)[C@H](O)[C@H](O)[C@H]2O)[C@@H]1O (mixture of isomers) [LNnT, lacto-N-neotetraose]
3.95% | CC(=O)N[C@H]1[C@H](O[C@H]2[C@@H](O)[C@@H](CO)O[C@@H](O[C@H]3[C@H](O)[C@@H](NC(C)=O)C(O)O[C@@H]3CO)[C@@H]2O)O[C@H](CO)[C@@H](O[C@@H]2O[C@H](CO)[C@H](O)[C@H](O)[C@H]2O)[C@@H]1O (some centres unmarked) [2LN, Galβ1-4GlcNAcβ1-3Galβ1-4GlcNAc]
